Experimental data: article PMC9019904, “AD Informer Set: Chemical tools to facilitate Alzheimer's disease drug discovery” (Alzheimer's & Dementia : Translational Research & Clinical …, 2022)
Converted amounts (≈) assume the structure as drawn.

Assays:
[1] = tested on: cellular system; details: published cellular activity at 10 μM; cited from earlier work
[2] = tested on: HMC3 (human microglia) cell line; experiment: pHrodo-myelin phagocytosis/cell viability high content imaging assay: phagocytosis signal; format: cell-based
Procedure, shortened: (§1)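 Phagocytosis and cell viability were measured together by high content imaging about 22 hours after pHrodo-myelin addition. Three measurements were extracted from the images. Intensity increase and decrease were taken as early and later apoptosis, respectively.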

[3] = tested on: BV2 (mouse microglia) cell line; experiment: as above; format: cell-based
Procedure, shortened: as §1

[4] = Kinetic solubility in aqueous buffer pH 7.4 by total chemiluminescent nitrogen determination (Analiza); details: aqueous buffer, pH 7.4, aqueous buffer, kinetic from dmso stock
[5] = tested on: HMC3 (human microglia) cell line; experiment: pHrodo-myelin phagocytosis/cell viability high content imaging assay: viability (cell count, nuclear area, nuclear intensity)
Procedure, shortened: (§2)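 Immortalized microglia are treated with compound (10 μM, single concentration) for 48 h, the final 20 h alongside pHrodo-myelin. Data are the mean of duplicates, reported as % of untreated control.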

[6] = tested on: BV2 (mouse microglia) cell line; experiment: as above
Procedure, shortened: as §2

[7] = HMC3, 10 μM, cell count <70% control
[8] = BV2, 10 μM, cell count <70% control

Row | Compound | Reported as cell active (<10 μM) [1] | Inhibition of human microglial phagocytosis at 10 μM (<70% control) ([2]; HMC3, 10 μM) | Inhibition of mouse microglial phagocytosis at 10 μM (<70% control) ([3]; BV2, 10 μM) | solubility kinetic [4] [µM] | Human microglial cytotoxicity at 10 μM (<70% control) ([5]; HMC3, 10 μM) | Mouse microglial cytotoxicity at 10 μM (<70% control) ([6]; BV2, 10 μM) | Inhibition of human microglial phagocytosis at 10 μM (<70% control) ([2]; 10 μM, HMC3) | Inhibition of mouse microglial phagocytosis at 10 μM (<70% control) ([3]; 10 μM, BV2) | Human microglial cytotoxicity at 10 μM (<70% control) ([5]; 10 μM, HMC3) | Mouse microglial cytotoxicity at 10 μM (<70% control) ([6]; 10 μM, BV2) | Human microglial cytotoxicity at 10 μM (<70% control) [5, 7] | Mouse microglial cytotoxicity at 10 μM (<70% control) [6, 8] | Stimulation of mouse microglial phagocytosis at 10 μM (>150% control) ([3]; BV2, 10 μM)
1 | C=C(c1ccc(C(=O)O)cc1)c1cc2c(cc1C)C(C)(C)CCC2(C)C [Bexarotene] | Y (Published data supports that the compound is active in a cellular system when dosed at 10 μM (Y/N)) |  |  |  |  |  |  |  |  |  |  |  | 
2 | Cc1cc(Nc2ncc(Cl)c(Nc3ccccc3S(=O)(=O)C(C)C)n2)c(OC(C)C)cc1C1CCNCC1 [Ceritinib] |  | Y (The compound was found to inhibit phagocytosis (response threshold: <70% control) when human immortalized microglial cells were dosed at 10 μM (Y: yes)) | Y (The compound was found to inhibit phagocytosis (response threshold: <70% control) when murine immortalized microglial cells were dosed at 10 μM (Y: yes)) | 25.1 (≈ 14 µg/mL) | Y (The compound was found to be cytotoxic (cell count threshold: <70% control) when human immortalized microglial cells were dosed at 10 μM (Y: yes)) | Y (The compound was found to be cytotoxic (cell count threshold: <70% control) when murine immortalized microglial cells were dosed at 10 μM (Y: yes)) |  |  |  |  |  |  | 
3 | CC1(COc2ccc3c(c2)ncn3-c2ccc3cccc(N4CCC(N)CC4)c3n2)COC1 [Crenolanib] |  |  |  | 115 (≈ 51.1 µg/mL) |  |  | Y (The compound was found to inhibit phagocytosis (response threshold: <70% control) when human immortalized microglial cells were dosed at 10 μM (Y: yes)) | Y (The compound was found to inhibit phagocytosis (response threshold: <70% control) when murine immortalized microglial cells were dosed at 10 μM (Y: yes)) | Y (The compound was found to be cytotoxic (cell count threshold: <70% control) when human immortalized microglial cells were dosed at 10 μM (Y: yes)) | Y (The compound was found to be cytotoxic (cell count threshold: <70% control) when murine immortalized microglial cells were dosed at 10 μM (Y: yes)) |  |  | 
4 | c1ccc(CNc2nc(NCc3ccccc3)c3ccccc3n2)cc1 [DBeQ] |  | Y (The compound was found to inhibit phagocytosis (response threshold: <70% control) when human immortalized microglial cells were dosed at 10 μM (Y: yes)) | Y (The compound was found to inhibit phagocytosis (response threshold: <70% control) when murine immortalized microglial cells were dosed at 10 μM (Y: yes)) | 1.9 (≈ 0.647 µg/mL) |  |  |  |  |  |  | Y (The compound was found to be cytotoxic (cell count threshold: <70% control) when human immortalized microglial cells were dosed at 10 μM (Y: yes)) | Y (The compound was found to be cytotoxic (cell count threshold: <70% control) when murine immortalized microglial cells were dosed at 10 μM (Y: yes)) | 
5 | CSc1ccc2c(c1)c(CCN)c(C)n2Cc1ccc(Cl)cc1Cl.Cl [K149] |  |  |  | 5.7 |  |  | Y (The compound was found to inhibit phagocytosis (response threshold: <70% control) when human immortalized microglial cells were dosed at 10 μM (Y: yes)) | Y (The compound was found to inhibit phagocytosis (response threshold: <70% control) when murine immortalized microglial cells were dosed at 10 μM (Y: yes)) | Y (The compound was found to be cytotoxic (cell count threshold: <70% control) when human immortalized microglial cells were dosed at 10 μM (Y: yes)) | Y (The compound was found to be cytotoxic (cell count threshold: <70% control) when murine immortalized microglial cells were dosed at 10 μM (Y: yes)) |  |  | 
6 | COc1cccc2c(NCc3ccccc3)nc(-n3c(N)nc4ccccc43)nc12 [ML 240] |  | Y (The compound was found to inhibit phagocytosis (response threshold: <70% control) when human immortalized microglial cells were dosed at 10 μM (Y: yes)) | Y (The compound was found to inhibit phagocytosis (response threshold: <70% control) when murine immortalized microglial cells were dosed at 10 μM (Y: yes)) | < 0.4 |  |  |  |  |  |  | Y (The compound was found to be cytotoxic (cell count threshold: <70% control) when human immortalized microglial cells were dosed at 10 μM (Y: yes)) | Y (The compound was found to be cytotoxic (cell count threshold: <70% control) when murine immortalized microglial cells were dosed at 10 μM (Y: yes)) | 
7 | Fc1ccc(C(CCCNCC2CCc3[nH]c4ccc(F)cc4c3C2)c2ccc(F)cc2)cc1 (centres unmarked) [MSC1094308] |  | Y (The compound was found to inhibit phagocytosis (response threshold: <70% control) when human immortalized microglial cells were dosed at 10 μM (Y: yes)) | Y (The compound was found to inhibit phagocytosis (response threshold: <70% control) when murine immortalized microglial cells were dosed at 10 μM (Y: yes)) | 3.9 (≈ 1.8 µg/mL) |  |  |  |  |  |  | Y (The compound was found to be cytotoxic (cell count threshold: <70% control) when human immortalized microglial cells were dosed at 10 μM (Y: yes)) | Y (The compound was found to be cytotoxic (cell count threshold: <70% control) when murine immortalized microglial cells were dosed at 10 μM (Y: yes)) | 
8 | Cc1cc(OCc2nnc(SC3CCCC3)n2-c2cccnc2)ccc1-c1ccc(S(C)(=O)=O)cc1 [NMS-873] |  | Y (The compound was found to inhibit phagocytosis (response threshold: <70% control) when human immortalized microglial cells were dosed at 10 μM (Y: yes)) | Y (The compound was found to inhibit phagocytosis (response threshold: <70% control) when murine immortalized microglial cells were dosed at 10 μM (Y: yes)) | 3.8 (≈ 1.98 µg/mL) |  |  |  |  |  |  | Y (The compound was found to be cytotoxic (cell count threshold: <70% control) when human immortalized microglial cells were dosed at 10 μM (Y: yes)) | Y (The compound was found to be cytotoxic (cell count threshold: <70% control) when murine immortalized microglial cells were dosed at 10 μM (Y: yes)) | 
9 | O=C1C=C(NCCc2cc(Br)c(O)c(Br)c2)C(=O)c2ncccc21 [NSC668394] |  | Y (The compound was found to inhibit phagocytosis (response threshold: <70% control) when human immortalized microglial cells were dosed at 10 μM (Y: yes)) |  | 18.4 (≈ 8.32 µg/mL) | Y (The compound was found to be cytotoxic (cell count threshold: <70% control) when human immortalized microglial cells were dosed at 10 μM (Y: yes)) | Y (The compound was found to be cytotoxic (cell count threshold: <70% control) when murine immortalized microglial cells were dosed at 10 μM (Y: yes)) |  |  |  |  |  |  | Y (The compound was found to stimulate phagocytosis (response threshold: >150% control) when murine immortalized microglial cells were dosed at 10 μM (Y: yes))
10 | CC(=O)NCC(=O)N1[C@@H]2CC[C@H]1c1ccc(Nc3ncc(C(F)(F)F)c(NC4CCC4)n3)cc12 [PF-03814735 (MolPort-023-219-160)] |  |  |  | 159 (≈ 75.6 µg/mL) |  |  | Y (The compound was found to inhibit phagocytosis (response threshold: <70% control) when human immortalized microglial cells were dosed at 10 μM (Y: yes)) | Y (The compound was found to inhibit phagocytosis (response threshold: <70% control) when murine immortalized microglial cells were dosed at 10 μM (Y: yes)) | Y (The compound was found to be cytotoxic (cell count threshold: <70% control) when human immortalized microglial cells were dosed at 10 μM (Y: yes)) | Y (The compound was found to be cytotoxic (cell count threshold: <70% control) when murine immortalized microglial cells were dosed at 10 μM (Y: yes)) |  |  | 
11 | CN(C)CCCOc1c(Br)cc(/C=C/C(=O)NCCCOc2c(Br)cc(CCN(C)C)cc2Br)cc1Br [Psammaplysene A] |  |  |  | 125 (≈ 96.4 µg/mL) |  |  | Y (The compound was found to inhibit phagocytosis (response threshold: <70% control) when human immortalized microglial cells were dosed at 10 μM (Y: yes)) | Y (The compound was found to inhibit phagocytosis (response threshold: <70% control) when murine immortalized microglial cells were dosed at 10 μM (Y: yes)) | Y (The compound was found to be cytotoxic (cell count threshold: <70% control) when human immortalized microglial cells were dosed at 10 μM (Y: yes)) | Y (The compound was found to be cytotoxic (cell count threshold: <70% control) when murine immortalized microglial cells were dosed at 10 μM (Y: yes)) |  |  | 
12 | Cn1nccc1Nc1nccc(-c2ccn([C@H](CO)c3ccc(Cl)c(F)c3)c(=O)c2)n1 [Ravoxertinib (GDC0994)] |  |  |  | 3.8 (≈ 1.68 µg/mL) |  |  | Y (The compound was found to inhibit phagocytosis (response threshold: <70% control) when human immortalized microglial cells were dosed at 10 μM (Y: yes)) | Y (The compound was found to inhibit phagocytosis (response threshold: <70% control) when murine immortalized microglial cells were dosed at 10 μM (Y: yes)) | Y (The compound was found to be cytotoxic (cell count threshold: <70% control) when human immortalized microglial cells were dosed at 10 μM (Y: yes)) | Y (The compound was found to be cytotoxic (cell count threshold: <70% control) when murine immortalized microglial cells were dosed at 10 μM (Y: yes)) |  |  | 
